One data set is described as follows: physchem. It counts as physicochemical. The note with it: aqueous with cosolvent or surfactant or cyclodextrin, in DMSO: PBS (IP) or PEG400 (oral).
In a further data set the test system is Panc-1 (pancreas). The experiment in a line: Cytotoxicity, sulforhodamine B, 48 h. It counts as cell-based. The note with it: Homo sapiens, mean ± sd.
In a further data set the test system is Hep-G2 (liver). The experiment in a line: Cytotoxicity, sulforhodamine B, 48 h. The settings on record: Homo sapiens, HepG2, mean ± sd. Type of data set: cell-based.
In another data set the test system is DU145 (prostate). The experiment in a line: Cytotoxicity, sulforhodamine B, 48 h. Type of data set: cell-based. The note with it: Homo sapiens, DU-145, mean ± sd. On the procedure:
(§1) To further assess the biological efficacies of the Compounds in intact cells, each Compound was evaluated for cytotoxicity using human cancer cell lines. These experiments followed methods that have been extensively used. Cell lines tested included MCF-7 human breast adenocarcinoma cells. The indicated cell lines were treated with varying doses of the test Compound for 48 h. Cell survival was then determined using the SRB binding assay (Skehan et al., 1990, J Natl Cancer Inst 82: 1107), and the concentration of compound that inhibited proliferation by 50% (the IC50) was calculated. Values (in μM) represent the mean±sd for replicate trials.

A further data set deals with SK-OV-3 (ovary). The data set is described as follows: Cytotoxicity, sulforhodamine B, 48 h. Type of data set: cell-based. The note with it: Homo sapiens, mean ± sd. Here is the method:
as §1

The subject of the next data set is HT-29 (colon). The experiment in a line: Cytotoxicity, sulforhodamine B, 48 h. It counts as cell-based. The settings on record: Homo sapiens, mean ± sd. Here is the method: as §1
Another data set relates to MDA-MB-231 (breast, ER−). The experiment in a line: Cytotoxicity, sulforhodamine B, 48 h. It counts as cell-based. The settings on record: Homo sapiens, mean ± sd. On the procedure:
as §1

Another data set concerns 1025LU (Melanoma). The experiment in a line: Cytotoxicity, sulforhodamine B, 48 h. Type of data set: cell-based. The settings on record: Homo sapiens, mean ± sd. On the procedure: as §1
Another data set relates to A-498 (Kidney). The experiment in a line: Cytotoxicity, sulforhodamine B, 48 h. Type of data set: cell-based. The settings on record: Homo sapiens, A498, mean ± sd. Here is the method: as §1
The subject of another data set is T24 (bladder). The data set is described as follows: Cytotoxicity, sulforhodamine B, 48 h. It counts as cell-based. The settings on record: Homo sapiens, mean ± sd.
Data set [1] relates to female Swiss-Webster mice. The data set is described as follows: In vivo toxicity in mice. The note with it: orally up to at least 100 mg/kg.
Data set [2] concerns JC murine adenocarcinoma cells in Balb/c mice. The data set is described as follows: JC mammary adenocarcinoma syngeneic tumor model. Type of data set: in vivo. The settings on record: for inhibition of tumor growth relative to controls: 50 mg/kg IP every-other day, Balb/c mice; for In vivo activity: JC tumor model, intraperitoneal (ip) or oral (po). On the procedure: FIG. 1. Inhibition of tumor growth by SK inhibitors. Balb/c female mice were injected subcutaneously with JC murine adenocarcinoma cells suspended in PBS. After palpable tumor growth, animals were treated by intraperitoneal injection of either 0.1 mL of 50% DMSO (control, circles) or 50 mg/kg of Compound 8 (squares) or Compound 73 (triangles) on odd numbered days. Whole body weight and tumor volume measurement were performed for up to 18 days. * p<0.05. Inset: Averaged body weights of mice from each group during course of study.
FIG. 2. Dose-response relationships for inhibition of tumor growth by Compound 8. Balb/c female mice were injected subcutaneously with JC cells suspended in PBS. After palpable tumor growth, animals were treated by oral gavage of either 100 μl of PEG400 (control, circles) or Compound 8 at 3.5 mg/kg (diamonds), 10 mg/kg (inverted triangles), 35 mg/kg (triangles) or 100 mg/kg (squares) on odd numbered days. Whole body weight and tumor volume measurement were performed for up to 18 days.
The SK inhibitors Compounds 8 and 73 were dissolved in 50% DMSO and administered by intraperitoneal injection to mice every-other day at a dose of 50 mg/kg. Body weights and tumor volumes were monitored daily.

In data set [3] the test system is MCF-7 human breast adenocarcinoma cells. The data set is described as follows: Cytotoxicity, SRB assay, 48 h. Type of data set: cell-based. The note with it: Homo sapiens, MCF7. On the procedure: as §1
In a further data set the test system is human endothelial cells. The data set is described as follows: TNFα-induced PGE2 production (Cox-2 activity), ELISA. It counts as cell-based. The settings on record: 100 ng TNFα/mL, 18 hours, 10 μg/mL compound. Here is the method: (§2) FIG. 3. Inhibition of TNFα-induced Cox-2 activity by Compound 8. Rat IEC6 cells (Panel A) or human endothelial cells (Panel B) were incubated for 18 hours with dimethylsulfoxide (DMSO) as a solvent control, or 100 ng of TNFα/mL in the presence of DMSO or 10 μg/mL of Compound 8. Levels of PGE2 secreted into the medium were quantified by ELISA. Values represent the mean±sd for triplicate samples in a typical experiment.
(§3) To determine the effects of the SK inhibitors on Cox-2 activity, an ELISA assay was used to measure PGE2 production by IEC6 rat intestinal epithelial cells and human endothelial cells treated with TNFα.

Data set [4] deals with IEC6 rat intestinal epithelial cells. Described as above. It counts as cell-based. The settings on record: 100 ng TNFα/mL, 18 hours, 10 μg/mL compound. Here is the method: as §2, §3
For a further data set, the system named is Caco-2 (colon). The experiment in a line: Cytotoxicity, sulforhodamine B, 48 h. It counts as cell-based. The settings on record: Homo sapiens, mean ± sd.
The subject of data set [5] is diverse panel of 20 purified kinases. The data set is described as follows: Kinase selectivity panel, overall statement. It counts as biochemical. The note with it: 50 μM. Here is the method:
A common problem with previous attempts to develop protein kinase inhibitors is the lack of selectivity toward the target kinase since the majority of these compounds interact with nucleotide-binding domains that are highly conserved among kinases. To determine if compound of this invention are non-selective kinase inhibitors, the effects of the SK inhibitor, Compound 73, on a diverse panel of 20 purified kinases was determined. The compound was tested at a single concentration of 50 μM.
The panel included both serine/threonine kinases and tyrosine kinases, as well as several that are regulated by their interaction with lipids.

[6] abbreviates: Table 6, 48 h, SRB, inhibition of cell proliferation, read-out: MCF-7 IC50.
The mark [7] stands for this setting: Table 7, 48 hours, mean ± sd, read-out: IC50 (μM) MCF-7.

Where two headings read alike, the source gives them in different places.

On to `CCCC(=O)Oc1ccc(C=CC(=O)Nc2nc(-c3ccc(Cl)cc3)cs2)cc1OC` [Compound 8, Butyric acid 4-{2-[4-(4-chloro-phenyl)-thiazol-2-ylcarbamoyl]-vinyl}-2-methoxy-phenyl ester], for which the values for the solubility in “physchem” (read-out: solubility) and in the data set “physchem” (read-out: solubility (molar)) were no less than 15 mg/mL and 30 to 40 mM, respectively. For the same molecule, the half-inhibitory concentration (IC50) in the data set on Panc-1 (pancreas) came to 19 ± 2.5 µM; in the data set with Hep-G2 (liver), 81.5 ± 38.9 µM; in the data set with DU145 (prostate), 21.2 ± 1.3 µM; with SK-OV-3 (ovary), 23.7 ± 3.2 µM; in the data set with HT-29 (colon) it was 54.7 ± 0.1 µM; in the data set with MDA-MB-231 (breast, ER−) it was 30.1 ± 3.9 µM. The IC50 was found to be 30.1 ± 3.9 µM with 1025LU (Melanoma); 38.3 ± 7.7 µM with A-498 (Kidney); 25.2 ± 2.9 µM in the data set on T24 (bladder); 6.6 µM in [3] (setting [6]); 25.2 ± 4.7 µM in data set [3] (setting [7]); 2.6 ± 1.2 µM in the data set on Caco-2 (colon). In addition, the “toxicity, oral administration” value in data set [1] was “without noticeable toxicity”. Also, the “inhibition of tumor growth relative to controls” value in data set [2] is listed as 66%. Moreover, in [2], the In vivo activity entry is “active - ip and po”. In data set [2] (oral gavage 3.5-100 mg/kg on odd numbered days), the “oral doses with antitumor activity” value is listed as no less than 10 mg/kg. Also, the “toxicity to the mice in the dose-response study” value in [2] (oral, any dose (3.5-100 mg/kg)) is recorded as “No toxicity”. The “TNFα-induced Cox-2 activity (PGE2 production)” value (in the data set on human endothelial cells; in [4]) was “strongly suppressed” each time.

With `Clc1ccc(-c2csc(NCc3ccccc3)n2)cc1` [Compound 73, Benzyl-[4-(4-chloro-phenyl)-thiazol-2-yl]-amine], the values for the solubility in “physchem” (read-out: solubility) and in “physchem” (read-out: solubility (molar)) were no less than 15 mg/mL and 30 to 40 mM, respectively. The IC50 in the data set with Panc-1 (pancreas) was determined as 6.7 ± 2.4 µM; in the data set on Hep-G2 (liver), 13.8 ± 8.7 µM; with DU145 (prostate), 6.5 ± 3.6 µM; with SK-OV-3 (ovary), 10.2 ± 0.3 µM; with HT-29 (colon) it was 29.9 ± 9.4 µM; in the data set with MDA-MB-231 (breast, ER−) it was 26.6 ± 6.7 µM. For the same molecule, the half-maximal inhibitory concentration (IC50) with 1025LU (Melanoma) amounted to 8.3 ± 2.4 µM; with A-498 (Kidney) it was 4 ± 1.9 µM; in the data set on T24 (bladder) it was 22.7 ± 4.8 µM; in [3] (setting [6]) it was 8.3 µM; in data set [3] (setting [7]), 1.8 ± 0.7 µM; in the data set with Caco-2 (colon) it was 6.3 ± 5.2 µM. Further, in data set [1], the “toxicity, oral administration” value was “without noticeable toxicity”. Further, the “inhibition of tumor growth relative to controls” value in data set [2] came out at 69%. Further, the In vivo activity entry in data set [2] is “active - ip”. The “inhibition of the 20 kinases of the panel” value in [5] is reported as “none of the 20 diverse kinases tested were significantly inhibited”.

The values are drawn from patent US20100137315A1, “Sphingosine Kinase Inhibitors and Methods of Their Use” (APOGEE BIOTECHNOLOGY CORPORATION, priority 2005, published 2010).
